Data as given in patent publication US9834558B2, “Substituted bridged urea analogs as sirtuin modulators” (GLAXOSMITHKLINE LLC, priority 2013, dated 2017).
Structures can show the parent of a compound that is named as a salt. Where two headings read alike, the source gives them in different places.

Biological target: T1, SIRT1 (Homo sapiens, UniProt Q96EB6)
T1 sequence (Q96EB6 1-747): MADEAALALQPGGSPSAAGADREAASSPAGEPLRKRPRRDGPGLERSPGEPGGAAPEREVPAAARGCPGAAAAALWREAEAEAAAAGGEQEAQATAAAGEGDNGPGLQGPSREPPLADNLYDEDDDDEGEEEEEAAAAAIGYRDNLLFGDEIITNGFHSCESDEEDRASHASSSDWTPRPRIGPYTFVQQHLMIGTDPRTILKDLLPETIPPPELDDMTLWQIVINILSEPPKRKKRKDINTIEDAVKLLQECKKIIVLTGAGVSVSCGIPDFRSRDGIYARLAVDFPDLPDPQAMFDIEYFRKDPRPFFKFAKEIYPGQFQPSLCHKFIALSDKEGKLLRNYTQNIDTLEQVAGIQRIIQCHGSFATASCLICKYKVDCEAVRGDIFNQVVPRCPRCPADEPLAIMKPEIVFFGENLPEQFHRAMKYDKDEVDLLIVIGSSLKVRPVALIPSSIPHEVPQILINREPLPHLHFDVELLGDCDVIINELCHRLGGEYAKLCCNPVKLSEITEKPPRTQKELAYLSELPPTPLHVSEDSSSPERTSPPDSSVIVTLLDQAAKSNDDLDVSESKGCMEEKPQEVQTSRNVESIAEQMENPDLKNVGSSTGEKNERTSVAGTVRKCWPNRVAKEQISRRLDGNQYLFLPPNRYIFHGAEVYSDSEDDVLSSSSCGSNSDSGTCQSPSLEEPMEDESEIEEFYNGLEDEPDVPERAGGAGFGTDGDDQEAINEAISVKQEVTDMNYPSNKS
Assay: Trp mass spectrometry assay of SIRT1 activation
Type: biochemical
Conditions: for TRP Activity (EC1.5): EC1.5 = concentration that results in 150% activation of SIRT1
How it was run: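 N-terminal His-tagged human SIRT1 (10 nM, E. coli BL21(DE3)) with 0.5 μM Ac-RHKK(Ac)W-NH2 peptide and 120 μM βNAD+, 25 min at 25 °C in HEPES pH 7.5, formic acid stop. OAADPR or deacetylated peptide quantified by mass spectrometry; EC1.5 (50% activity increase over control) and Percent Maximum Activation reported.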

[1] = Trp peptide assay, maximum activity relative to control (100%), read-out: TRP MAX RESP (percent maximum fold activation)
[2] = Trp peptide substrate, concentration giving 150% activation of SIRT1
[3] = concentration giving 150% activation of SIRT1, Trp peptide substrate
[4] = Trp mass spectrometry assay, EC1.5 = concentration of test compound that results in 150% activation of SIRT1
[5] = Trp mass spectrometry assay, concentration of test compound giving 150% activation of SIRT1
[6] = Trp mass spectrometry assay, percent maximum fold activation of SIRT1, read-out: Tryp % Fold Act

Cc1cc(-c2ccc3c(n2)N(C(=O)N2CC[C@@H](C)C2)[C@H]2CCN3C2)ccn1 [(9S)-5-(2-methylpyridin-4-yl)-8-{[(3R)-3-methylpyrrolidin-1-yl]carbonyl}-1,6,8-triazatricyclo[7.2.1.0 {2,7}]dodeca-2,4,6-triene]
TRP Activity (EC1.5) (Trp peptide assay): C (C (EC1.5>25 μM))
Emax [1]: < 150%

Cc1cnc2c(NC(=O)N3c4nc(-c5cccc(C(F)(F)F)c5)ccc4N4CC[C@H]3C4)cccc2n1 [76 (8)]
Tryp AVG EC1.5 (μM) [2]: A (A (EC1.5<1 μM))

CCCC(=O)c1cccc(NC(=O)N2c3nc(-c4cccc(C(F)(F)F)c4)ccc3N3CC[C@H]2C3)c1 [Example 736]
Tryp AVG EC1.5 (μM) [3]: A (A (EC1.5<1 μM))

Cn1cc(-c2ccc3c(n2)N(C(=O)Nc2cnccn2)[C@H]2CCN3C2)cn1 [(9S)-5-(1-methyl-1H-pyrazol-4-yl)-N-(pyrazin-2-yl)-1,6,8-triazatricyclo[7.2.1.0 {2,7}]dodeca-2(7),3,5-triene-8-carboxamide]
TRP Activity (EC1.5) (Trp peptide assay): B (B (EC1.5 1-25 μM))
Emax [1]: > 150%

O=C(Nc1ccc(F)cn1)N1c2nc(-c3cncc(F)c3)ccc2N2CCC[C@H]1C2 [Example 431]
Tryp AVG EC1.5 (μM) [4]: A (A (EC1.5<1 μM))

Cc1n[nH]c(C)c1-c1ccc2c(n1)N(C(=O)Nc1cccnc1)[C@H]1CCN2C1 [Example 525]
Tryp AVG EC1.5 (μM) [4]: B (B (EC1.5 1-25 μM))

O=C(Nc1ccccn1)N1c2nc(-c3ccnc(N4CCC(F)(F)C4)c3)ccc2N2CC[C@H]1C2 [Example 388]
Tryp AVG EC1.5 (μM) [5]: A (A (EC1.5<1 μM))

Cc1cc(-c2ccc3c(n2)N(C(=O)Nc2nccc4nccnc24)[C@H]2CCN3C2)ccn1 [(9S)-5-(2-methylpyridin-4-yl)-N-{pyrido[3,4-b]pyrazin-5-yl}-1,6,8-triazatricyclo[7.2.1.0 {2,7}]dodeca-2,4,6-triene-8-carboxamide]
TRP Activity (EC1.5) (Trp peptide assay): B (B (EC1.5 1-25 μM))
Emax [1]: > 150%

O=C(Nc1cc(F)ccn1)N1c2nc(-c3cccc(C(F)(F)F)c3)ccc2N2CCC1CC2 [Example 492]
Tryp AVG EC1.5 (μM) [4]: A (A (EC1.5<1 μM))
Emax [6]: > 150%

Cc1nc(NC(=O)N2c3nc(-c4cccc(C(F)(F)F)c4)ccc3N3C[C@@H](O)[C@H]2C3)sc1C [Example 699]
Tryp AVG EC1.5 (μM) [3]: B (B (EC1.5 1-25 μM))

Cc1ccc(-c2ccc3c(n2)N(C(=O)Nc2cnccn2)[C@H]2CCN3C2)c(C)n1 [(9S)-5-(2,6-dimethylpyridin-3-yl)-N-(pyrazin-2-yl)-1,6,8-triazatricyclo[7.2.1.0 {2,7}]dodeca-2(7),3,5-triene-8-carboxamide]
TRP Activity (EC1.5) (Trp peptide assay): B (B (EC1.5 1-25 μM))
Emax [1]: > 150%

Cc1cc(C)c(-c2ccc3c(n2)N(C(=O)Nc2cnccn2)[C@H]2CCN3C2)cn1 [(9S)-5-(4,6-dimethylpyridin-3-yl)-9-N-(pyrazin-2-yl)-1,6,8-triazatricyclo[7.2.1.0 {2,7}]dodeca-2(7),3,5-triene-8-carboxamide]
TRP Activity (EC1.5) (Trp peptide assay): C (C (EC1.5>25 μM))
Emax [1]: < 150%

O=C(Nc1cnccn1)N1c2nc(N3CCC[C@H](C(F)(F)F)C3)ccc2N2CCC[C@H]1C2 [(9S)-N-(pyrazin-2-yl)-5-[(3S)-3-(trifluoromethyl)piperidin-1-yl]-1,6,8-triazatricyclo[7.3.1.0 {2,7}]trideca-2(7),3,5-triene-8-carboxamide]
TRP Activity (EC1.5) (Trp peptide assay): A (A (EC1.5<1 μM))
Emax [1]: > 150%

O=C(Nc1ccccn1)N1c2nc(-c3ccc(-c4nnn[nH]4)cc3)ccc2N2CC[C@H]1C2 [Example 347]
Tryp AVG EC1.5 (μM) [5]: A (A (EC1.5<1 μM))

C#Cc1ccc(NC(=O)N2c3nc(-c4ccc(C5(C(F)(F)F)N=N5)cc4)ccc3N3CC[C@H]2C3)nc1 [Example 807]
Tryp AVG EC1.5 (μM) [3]: C (C (EC1.5>25 μM))

Cc1ccc(-c2ccc3c(n2)N(C(=O)NCC(F)(F)F)[C@H]2CCN3C2)cn1 [(9S)-5-(6-methylpyridin-3-yl)-N-(2,2,2-trifluoroethyl)-1,6,8-triazatricyclo[7.2.1.0^{2,7}]dodeca-2(7),3,5-triene-8-carboxamide]
TRP Activity (EC1.5) (Trp peptide assay): B (B (EC1.5 1-25 μM))
Emax [1]: > 150%

Cc1nc(NC(=O)N2c3nc(-c4cncc(Cl)c4)ccc3N3CCC[C@H]2C3)sc1C [Example 402]
Tryp AVG EC1.5 (μM) [5]: A (A (EC1.5<1 μM))

COc1ncc(-c2ccc3c(n2)N(C(=O)Nc2cnccn2)[C@H]2CCN3C2)c(OC)n1 [Example 398]
Tryp AVG EC1.5 (μM) [5]: B (B (EC1.5 1-25 μM))

N#Cc1ccccc1-c1ccc2c(n1)N(C(=O)Nc1cccnn1)[C@H]1CCCN2C1 [Example 426]
Tryp AVG EC1.5 (μM) [4]: B (B (EC1.5 1-25 μM))

Cc1cc(-c2ccc3c(n2)N(C(=O)N2CCO[C@H](C)C2)[C@H]2CCN3C2)ccn1 [(9S)-8-{[(2R)-2-methylmorpholin-4-yl]carbonyl}-5-(2-methylpyridin-4-yl)-1,6,8-triazatricyclo[7.2.1.0 {2,7}]dodeca-2(7),3,5-triene hydrochloride]
TRP Activity (EC1.5) (Trp peptide assay): C (C (EC1.5>25 μM))
Emax [1]: < 150%

COc1cc(NC(=O)N2c3nc(-c4cncc(F)c4)ccc3N3CCC[C@H]2C3)ncn1 [Example 404]
Tryp AVG EC1.5 (μM) [5]: A (A (EC1.5<1 μM))

O=C(Nc1cccc(-c2cnco2)c1)N1c2nc(-c3cncc(C(F)(F)F)c3)ccc2N2C[C@@H](O)[C@H]1C2 [Example 709]
Tryp AVG EC1.5 (μM) [3]: A (A (EC1.5<1 μM))

O=C(NCc1ncc(-c2cccc(NC(=O)N3c4nc(-c5cccc(C(F)(F)F)c5)ccc4N4CC[C@H]3C4)c2)o1)OCc1ccccc1 [Example 706]
Tryp AVG EC1.5 (μM) [3]: A (A (EC1.5<1 μM))

CC(C)n1cc(-c2ccc3c(n2)N(C(=O)Nc2cnccn2)[C@H]2CCN3C2)cn1 [(9S)-5-[1-(propan-2-yl)-1H-pyrazol-4-yl]-N-(pyrazin-2-yl)-1,6,8-triazatricyclo[7.2.1.0 {2,7}]dodeca-2,4,6-triene-8-carboxamide]
TRP Activity (EC1.5) (Trp peptide assay): A (A (EC1.5<1 μM))
Emax [1]: > 150%

N#Cc1cccc(-c2ccc3c(n2)N(C(=O)Nc2cncc(F)c2)[C@H]2CCCN3C2)c1 [Example 353]
Tryp AVG EC1.5 (μM) [5]: A (A (EC1.5<1 μM))

O=C(Nc1cccnc1)N1c2nc(C3CCCC(C(F)(F)F)C3)ccc2N2CC[C@H]1C2 (stereo partly shown) [Example 99]
Tryp AVG EC1.5 (μM) [2]: A (A (EC1.5<1 μM))

O=C(Nc1nnc(-c2ccccn2)o1)N1c2nc(-c3cccc(C(F)(F)F)c3)ccc2N2CC[C@H]1C2 [Example 720]
Tryp AVG EC1.5 (μM) [3]: A (A (EC1.5<1 μM))

O=C(Nc1cccnc1)N1c2nc(-c3cccc(C(F)(F)F)c3)ccc2N2C[C@@H](O)[C@H]1C2 [Example 663]
Tryp AVG EC1.5 (μM) [3]: A (A (EC1.5<1 μM))

O=C(Nc1cnccn1)N1c2nc(-c3cc(F)c(F)c(F)c3)ccc2N2CC[C@H]1C2 [Example 416]
Tryp AVG EC1.5 (μM) [5]: C (C (EC1.5>25 μM))

O=C(O)c1cc(NC(=S)NCc2ccc(NC(=O)N3c4nc(-c5cccc(C(F)(F)F)c5)ccc4N4CC[C@H]3C4)cc2)ccc1-c1c2ccc(=O)cc-2oc2cc(O)ccc12 [Example 530]
Tryp AVG EC1.5 (μM) [4]: A (A (EC1.5<1 μM))
Emax [6]: > 150%

CS(=O)(=O)c1cncc(-c2ccc3c(n2)N(C(=O)Nc2cccnc2)[C@H]2CCCN3C2)c1 [Example 376]
Tryp AVG EC1.5 (μM) [5]: A (A (EC1.5<1 μM))

O=C(Nc1cccc(C2CCNC2)c1)N1c2nc(-c3cccc(C(F)(F)F)c3)ccc2N2CC[C@H]1C2 (stereo partly shown) [Example 593]
Tryp AVG EC1.5 (μM) [4]: A (A (EC1.5<1 μM))

NCCCCCC(=O)NCc1cn(-c2cccc(NC(=O)N3c4nc(-c5cccc(C(F)(F)F)c5)ccc4N4CC[C@H]3C4)c2)nn1 [Example 639]
Tryp AVG EC1.5 (μM) [3]: A (A (EC1.5<1 μM))

Cc1cc(-c2ccc3c(n2)N(C(=O)Nc2nccnc2F)[C@H]2CCN3C2)ccn1 [(9S)-N-(3-fluoropyrazin-2-yl)-5-(2-methylpyridin-4-yl)-1,6,8-triazatricyclo[7.2.1.0^{2,7}]dodeca-2,4,6-triene-8-carboxamide]
TRP Activity (EC1.5) (Trp peptide assay): B (B (EC1.5 1-25 μM))
Emax [1]: > 150%

O=C(Nc1ccnc(OC[C@@H](O)CO)n1)N1c2nc(-c3cccc(C(F)(F)F)c3)ccc2N2CC[C@H]1C2 [(9S)-N-{2-[(2S)-2,3-dihydroxypropoxy]pyrimidin-4-yl}-5-[3-(trifluoromethyl)phenyl]-1,6,8-triazatricyclo[7.2.1.0 {2,7}]dodeca-2(7),3,5-triene-8-carboxamide]
TRP Activity (EC1.5) (Trp peptide assay): A (A (EC1.5<1 μM))
Emax [1]: > 150%

O=C(NCCCc1ccccc1)N1c2nc(-c3cccc(C(F)(F)F)c3)ccc2N2CC[C@H]1C2 [Example 599]
Tryp AVG EC1.5 (μM) [4]: B (B (EC1.5 1-25 μM))
